Measured values reported in PubChem BioAssay (NCI).
Where “and” joins values, the source holds several entries; their conditions need not be identical. Equal entries are not always repeated.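 The compound was tested at five concentrations on cells cultured in 96-well plates, with a 48-hour exposure period. Abbreviation: GI50, concentration required for 50% inhibition of growth. At the TGI there is no net growth.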

Experiments:
Assay in all cases: DTP human tumour cell line panel, 48 h
EKVX NSCLC = system: EKVX NSCLC
HCT-116 colon = system: HCT-116 colon
HL-60(TB) leukemia = system: HL-60(TB) leukemia
HOP-62 NSCLC = system: HOP-62 NSCLC
KM12 colon = system: KM12 colon
NCI-H460 lung = system: NCI-H460 lung
NCI-H522 lung = system: NCI-H522 lung
SK-MEL-5 melanoma = system: SK-MEL-5 melanoma
SK-OV-3 ovarian = system: SK-OV-3 ovarian
SN12C renal = system: SN12C renal

Row | Compound | GI50 (EKVX NSCLC) [µM] | TGI (EKVX NSCLC) [µM] | GI50 (HCT-116 colon) [nM] | TGI (HCT-116 colon) [µM] | GI50 (HL-60(TB) leukemia) [nM] | TGI (HL-60(TB) leukemia) [µM] | GI50 (HOP-62 NSCLC) [µM] | TGI (HOP-62 NSCLC) [µM] | GI50 (KM12 colon) | TGI (KM12 colon) | GI50 (NCI-H460 lung) [nM] | TGI (NCI-H460 lung) [µM] | GI50 (NCI-H522 lung) [nM] | TGI (NCI-H522 lung) [µM] | GI50 (SK-MEL-5 melanoma) | TGI (SK-MEL-5 melanoma) | GI50 (SK-OV-3 ovarian) | TGI (SK-OV-3 ovarian) | GI50 (SN12C renal) [µM] | TGI (SN12C renal)
1 | CCOC(=O)N1CCN(/[N+]([O-])=N/Oc2ccc([N+](=O)[O-])cc2[N+](=O)[O-])CC1 | 12.6 | 32.6 | 929 | 3.66 | 76.1 | 0.201 | 3.14 | 13.6 | 1780 nM | 8.56 µM | 4410 | 18 | 4360 | 22.4 | 2770 nM | 12.1 µM | 5.61 µM | 18.4 µM | 1.45 | 6.92 µM
2 | COc1ccc2[nH]cc(-c3ccc(-c4c[nH]c5ccc(OC)cc45)s3)c2c1 | 8.33 | 26.9 | 3620 | 11.7 | 1590 | 6.27 | 4.67 | 10.5 | 2370 nM | 6.67 µM | 2880 | 9.32 | 1560 | 4.46 | 5050 nM | 17.6 µM | 14.7 µM | 39.8 µM | 11.1 | 33.6 µM
3 | C/C(=N\NC(=S)N1CC2CCC(CC2)C1)c1nccs1 |  | 11.9 |  | 13.4 |  | 0.0184 |  | 5.66 |  | 17.6 µM |  | 3.67 |  | 14 |  | 5.24 µM |  | 11.3 µM |  | 12.5 µM
4 | O=C(Nc1ccc([As](=O)(O)O)cc1)Nc1cccc(Cl)c1Cl |  | > 100 |  | > 100 |  | > 100 |  | > 100 |  | > 100 µM |  | > 100 |  | > 100 |  | > 100 µM |  | > 100 µM |  | > 100 µM
5 | CCc1ccccc1NC(=O)C1=C(C)NC(C)=C(C(=O)Nc2ccccc2CC)C1c1ccccc1Cl |  | > 100 |  | > 100 |  | > 100 |  | > 100 |  | > 100 µM |  | > 100 |  | > 100 |  | > 100 µM |  | > 100 µM |  | > 100 µM
6 | CN(/N=C/c1cccc2cccnc12)c1ccc([N+](=O)[O-])cc1[N+](=O)[O-] |  | > 95 |  | > 82.1 |  | > 68.1 |  | 22.9 |  | > 100 µM |  | > 100 |  | 57.2 |  | > 100 µM |  | 52.8 µM |  | > 100 µM
7 | COC1=C(N)C(=O)c2nc(C)ccc2C1=O |  | 6.85 |  | 3.99 |  | > 26.9 |  | 2.94 |  | 3.68 µM |  | 4.11 |  | 3.21 |  | 3.09 µM |  | 38.4 µM |  | 3.27 µM
8 | O.O.[NH-]C1(C(=O)O)CCCC1.[NH-]C1(C(=O)O)CCCC1.[Ni+2] |  | > 100 |  | > 100 |  | > 100 |  | > 100 |  | > 100 µM |  | > 100 |  | > 100 |  | > 100 µM |  | > 100 µM |  | > 100 µM
9 | N.N.N.N.[Co+3].[N-]=[N+]=[N-].[N-]=[N+]=[N-].[N-]=[N+]=[N-] | > 100 | > 100 | 85500 | > 100 | 61500 | > 100 | > 100 | > 100 | > 100000 nM | > 100 µM | > 100000 | > 100 | 39700 | > 100 | > 100000 nM | > 100 µM | > 100 µM | > 100 µM | > 100 | > 100 µM
10 | C[C@]12CC[C@@H]3c4ccc(OC(=O)N(CCCl)CCCl)cc4CC[C@H]3[C@@H]1CC[C@@H]2O | 3.26 |  | 1600 | 10.8 | 731 |  | 2.44 |  | 3100 nM | 9.77 µM | 2750 | 12.9 | 2530 | 15.2 | 1950 nM | 9.27 µM | 4.71 µM | 36.8 µM and 7.95 µM | 3.37 | 17.4 µM and 3.48 µM
11 | COc1ccc(-c2cc3c(c4cc(OC)ccc24)C(=O)OC3=O)cc1 |  | > 100 |  | > 100 |  | > 100 |  | > 100 |  | > 100 µM |  | > 100 |  | > 100 |  | > 100 µM |  | > 100 µM |  | > 100 µM
12 | O=C1CC(O)CC(=O)C1=C(O)CCCCCCCCCCc1ccccc1 (configuration not stated) |  | > 100 |  | > 100 |  | 59.2 |  | > 100 |  | > 100 µM |  | > 100 |  | > 100 |  | > 100 µM |  | > 100 µM |  | > 100 µM
13 | CC[C@@H]1c2c(C#N)ncn2-c2cnc(Nc3ccc(C(=O)NC4CCN(C5CCN(CC6CC6)CC5)CC4)cc3OC)nc2N1C1CCCC1 | 1.06 | 2.46 | 31.3 | 1.19 | 24.9 | 0.104 | 0.0403 | 1.79 | 36.3 nM and 33.8 nM | 1.07 µM and 1.05 µM | 35.4 | 1.28 | 23 | 0.126 | 130 nM and 182 nM | 1.52 µM and 1.68 µM | 0.0384 µM and 0.122 µM | 1.04 µM and 1.64 µM | 0.0916 | 1.91 µM
